Reference: ChEMBL document CHEMBL3621038, “Structure-Affinity Relationship Analysis of Selective FKBP51 Ligands” (J Med Chem, 2015)

What was measured:
[1] = target: T1, Peptidyl-prolyl cis-trans isomerase FKBP5 (Homo sapiens, UniProt Q13451)
T1 sequence (Q13451 whole entry): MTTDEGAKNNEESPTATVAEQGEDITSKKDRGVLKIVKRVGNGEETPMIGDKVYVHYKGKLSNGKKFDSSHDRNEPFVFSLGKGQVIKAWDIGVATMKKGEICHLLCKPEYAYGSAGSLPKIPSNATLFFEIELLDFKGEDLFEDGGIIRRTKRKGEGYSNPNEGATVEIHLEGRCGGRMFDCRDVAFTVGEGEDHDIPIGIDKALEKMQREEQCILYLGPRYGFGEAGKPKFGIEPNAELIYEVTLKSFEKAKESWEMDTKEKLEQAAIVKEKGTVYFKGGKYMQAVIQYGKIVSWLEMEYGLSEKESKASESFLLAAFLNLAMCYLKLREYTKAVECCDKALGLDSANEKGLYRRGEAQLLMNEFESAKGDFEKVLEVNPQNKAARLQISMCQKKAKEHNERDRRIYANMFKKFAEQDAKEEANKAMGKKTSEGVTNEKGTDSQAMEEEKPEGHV

[2] = target: T2, Peptidyl-prolyl cis-trans isomerase FKBP4 (Homo sapiens, UniProt Q02790); experiment: Binding affinity to FKBP52 (unknown origin) by competitive fluorescence polarization assay
T2 sequence (Q02790 whole entry): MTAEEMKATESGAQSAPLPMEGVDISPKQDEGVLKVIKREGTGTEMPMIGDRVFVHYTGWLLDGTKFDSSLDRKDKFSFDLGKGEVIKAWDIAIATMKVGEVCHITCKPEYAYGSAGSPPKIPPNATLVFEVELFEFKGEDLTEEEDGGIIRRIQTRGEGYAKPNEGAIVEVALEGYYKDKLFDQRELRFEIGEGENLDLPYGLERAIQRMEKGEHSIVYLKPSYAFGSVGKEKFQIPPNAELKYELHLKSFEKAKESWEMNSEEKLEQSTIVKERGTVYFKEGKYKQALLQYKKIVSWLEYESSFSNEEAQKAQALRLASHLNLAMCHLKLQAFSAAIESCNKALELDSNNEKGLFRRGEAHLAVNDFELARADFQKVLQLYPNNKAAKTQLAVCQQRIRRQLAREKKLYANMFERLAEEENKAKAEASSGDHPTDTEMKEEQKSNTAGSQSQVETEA

[3] = target: Peptidyl-prolyl cis-trans isomerase FKBP1A (Homo sapiens, UniProt P62942); experiment: Binding affinity to FKBP12 (unknown origin) by competitive fluorescence polarization assay
Chain of Peptidyl-prolyl cis-trans isomerase FKBP1A (P62942 whole entry): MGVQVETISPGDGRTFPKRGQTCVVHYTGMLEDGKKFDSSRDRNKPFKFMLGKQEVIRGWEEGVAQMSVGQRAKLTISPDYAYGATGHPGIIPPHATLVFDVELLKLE

SMILES | Ki [1] | Ki [2] | Ki [3]
COc1ccc(CC[C@@H](OC(=O)[C@@H]2CCCCN2C(=O)[C@H](c2cc(OC)c(OC)c(OC)c2)C2CCCCC2)c2cccc(OCC(=O)O)c2)cc1OC | 4 nM | > 50000 nM | 90 nM
COc1cc(OC)cc([C@@H](C(=O)N2CCCC[C@H]2C(=O)O[C@H](CCc2ccc(OC)c(OC)c2)c2cccc(OCC(=O)O)c2)C2CCCCC2)c1 | 110 nM | > 50000 nM | 600 nM
COc1cccc([C@@H](C(=O)N2CCCC[C@H]2C(=O)O[C@H](CCc2ccc(OC)c(OC)c2)c2cccc(OCC(=O)O)c2)C2CCCCC2)c1 | 160 nM | > 100000 nM | 1200 nM
COc1ccc(CC[C@@H](OC(=O)[C@@H]2CCCCN2C(=O)CC2CCCCC2)c2cccc(OCC(=O)O)c2)cc1OC |  | 9700 nM | 300 nM
